The text below walks through data of US7795299B2, “Neo-tanshinlactone and analogs as potent and selective anti-breast cancer agents” (The University of North Carolina at Chapel Hill, priority 2004, dated 2010).

Each structure is given as a SMILES string. ≈ marks a conversion by molar mass, not a printed value.

One series relates to MCF-7 (estrogen receptor positive breast cancer). Briefly: In vitro anticancer assay (SRB), MCF-7. Format: cell-based, human. Particulars: Homo sapiens, MCF7, 72 h; concentration that reduces cell growth by 50%, 3 days in culture, SRB; read-out: ED50, MCF-7 (ER+). The method, then:
(§1) All stock cultures were grown in T-25 flasks. Freshly trypsinized cell suspensions were seeded in 96-well microtiter plates at densities of 1500-7500 cells per well with compounds added from DMSO-diluted stock. After 3 days in culture, attached cells were fixed with cold 50% trichloroacetic acid and then stained with 0.4% sulforhodamine B (SRB). The absorbency at 562 nm was measured using a microplate reader after solubilizing the bound dye.
(§2) Biological assay. All stock cultures are grown in T-25 flasks. Freshly trypsinized cell suspensions were seeded in 96-well microtitre plates at densities of 1500-7500 cells per well with compounds added from DMSO-diluted stock. After 3 days in culture, attached cells were fixed with cold 50% trichloroacetic acid and then stained with 0.4% sulforhodamine B (SRB). The absorbency at 562 nm was measured using a microplate reader after solubilizing the bound dye.
For `Cc1cccc2c1ccc1c3occc3c(=O)oc21` [Compound 4b, 4-Methyl-11,15-dioxa-cyclopenta[a]phenanthren-12-one], the IC50 was 5.5 µg/mL (≈ 22 µM).

For the molecule `Cc1coc2c1C(=O)C(=O)c1c-2ccc2c1CCCC2(C)C` [tanshinone IIA, reference compound], the IC50 amounted to 0.38 µg/mL (≈ 1.29 µM).

In the case of `CCc1cccc2c1ccc1c3occ(C)c3c(=O)oc21` [Compound 2c, 4-Ethyl-17-methyl-11,15-dioxa-cyclopenta[a]phenanthren-12-one], the IC50 was 0.45 µg/mL (≈ 1.62 µM).

For the molecule `CCc1cccc2c1ccc1c3occc3c(=O)oc21` [Compound 4c, 4-Ethyl-11,15-dioxa-cyclopenta[a]phenanthren-12-one], the IC50 was more than 10 µg/mL.

The next series concerns MDA-MB-231 (estrogen receptor negative breast cancer). Briefly: In vitro anticancer assay (SRB), MDA-MB-231. Format: cell-based, human. As to conditions: Homo sapiens, MDA-MB-231, 72 h, concentration that reduces cell growth by 50%, 3 days in culture, SRB; read-out: ED50, MDA-MB-231 (ER−). The method, then: as §1, §2
Consider `Cc1coc2c1C(=O)C(=O)c1c-2ccc2c1CCCC2(C)C` [tanshinone IIA, reference compound], for which the IC50 stood at 0.7 µg/mL (≈ 2.38 µM).

With `CCc1cccc2c1ccc1c3occ(C)c3c(=O)oc21` [Compound 2c, 4-Ethyl-17-methyl-11,15-dioxa-cyclopenta[a]phenanthren-12-one], the IC50 came to 10.3 µg/mL (≈ 37 µM).

In the case of `CCc1cccc2c1ccc1c3occc3c(=O)oc21` [Compound 4c, 4-Ethyl-11,15-dioxa-cyclopenta[a]phenanthren-12-one], the IC50 is more than 10 µg/mL.

The next series relates to ZR-75-1 (estrogen receptor positive breast cancer). Briefly: In vitro anticancer assay (SRB), ZR-75-1. In kind it is cell-based, human. As to conditions: Homo sapiens, ZR-75-1, 72 h, concentration that reduces cell growth by 50%, 3 days in culture, read-out: ED50, ZR-75-1 (ER+). The method, then:
as §1, §2
Turning to `Cc1cccc2c1ccc1c3occc3c(=O)oc21` [Compound 4b, 4-Methyl-11,15-dioxa-cyclopenta[a]phenanthren-12-one], the IC50 is more than 10 µg/mL.

For the molecule `CCc1cccc2c1ccc1c3occ(C)c3c(=O)oc21` [Compound 2c, 4-Ethyl-17-methyl-11,15-dioxa-cyclopenta[a]phenanthren-12-one], the IC50 is 0.18 µg/mL (≈ 0.647 µM).

The subject of another series is HS 587-T (estrogen receptor negative breast cancer). Description: In vitro anticancer assay (SRB), HS 587-T. In kind it is cell-based, human. Particulars: concentration that reduces cell growth by 50%, 3 days in culture, printed HS587-1 in Table 4. The method, then:
as §1, §2
`CCc1cccc2c1ccc1c3occ(C)c3c(=O)oc21` [Compound 2c, 4-Ethyl-17-methyl-11,15-dioxa-cyclopenta[a]phenanthren-12-one]: the “ED50, HS 587-T (ER−)” value is 10 µg/mL (≈ 35.9 µM).

The test system of a further series is SK-BR-3 (HER-2-overexpressing breast cancer). Briefly: In vitro anticancer assay (SRB), SK-BR-3. In kind it is cell-based, human. Particulars: Homo sapiens, SK-BR-3, 72 h; concentration that reduces cell growth by 50%, 3 days in culture, SRB; read-out: ED50, SK-BR-3 (ER−, HER2+). The method, then:
(§3) In Vitro Anticancer Assay (Nakanishi, Y. et al., J. Med. Chem. 2003, 46, 3185). All stock cultures were grown in T-25 flasks. Freshly trypsinized cell suspensions were seeded in 96-well microtiter plates at densities of 1500-7500 cells per well with compounds added from DMSO-diluted stock. After 3 days in culture, attached cells were fixed with cold 50% trichloroacetic acid and then stained with 0.4% sulforhodamine B (SRB). The absorbency at 562 nm was measured using a microplate reader after solubilizing the bound dye. The mean ED50 is the concentration of agent that reduces cell growth by 50% under the experimental conditions and is the average from at least three independent determinations that were reproducible and statistically significant (FIG. 2). The following human tumor cell lines were used in the assay: A549 (non small cell lung cancer), MCF-7 (estrogen receptor positive breast cancer), ZR-75-1 (estrogen receptor positive breast cancer), MDA-MB-231 (estrogen receptor negative breast cancer), HS 587-T (estrogen receptor negative breast cancer), SK− BR-3 (HER-2-overexpressing breast cancer), A431 (EGFRoverexpressing skin cancer), LN-CaP (AR-dependent prostate cancer), SW620 (colon cancer), PC-3 (prostate cancer), KB (nasopharyngeal carcinoma), KB-VIN (vincristine-resistant KB subline). All cell lines were obtained from the Lineberger Comprehensive Cancer Center (UNC-CH) or from ATCC (Rockville, Md.) and were cultured in RPMI-1640 medium supplemented with 25 mMHEPES, 0.25% sodium bicarbonate, 10% fetal bovine serum, and 100 μg/mL kanamycin.
(§4) Biological assay. All stock cultures are grown in T-25 flasks. Freshly trypsinized cell suspensions were seeded in 96-well microtitre plates at densities of 1500-7500 cells per well with compounds added from DMSO-diluted stock. After 3 days in culture, attached cells were fixed with cold 50% trichloroacetic acid and then stained with 0.4% sulforhodamine B (SRB). The absorbency at 562 nm was measured using a microplate reader after solubilizing the bound dye. The mean ED50 is the concentration of agent that reduces cell growth by 50% under the experimental conditions and is the average from at least three independent determinations that were reproducible and statistically significant. The following human tumor cell lines were used in the assay: A549 (non-small cell lung cancer), MCF-7 (estrogen receptor positive breast cancer), ZR-75-1 (estrogen receptor positive breast cancer), MDA MB-231 (estrogen receptor negative breast cancer), HS 587-T (estrogen receptor negative breast cancer), SK-BR-3 (estrogen receptor negative, HER-2 over-expressing breast cancer), A431 (EGFR over-expressing skin cancer), LN-CaP (AR-dependent prostate cancer), SW620 (colon cancer), PC-3 (prostate cancer), KB (nasopharyngeal carcinoma), KB-VIN (Vincristine resistant KB subline). All cell lines were obtained from the Lineberg Cancer Center (UNC-CH) or from ATCC (Rockville, Md.) and were cultured in RPMI-1640 medium supplemented with 25 mM HEPES, 0.25% sodium bicarbonate, 10% fetal bovine serum, and 100 μg/mL kanamycin.
Take `Cc1cccc2c1ccc1c3occc3c(=O)oc21` [Compound 4b, 4-Methyl-11,15-dioxa-cyclopenta[a]phenanthren-12-one]: the IC50 was 8.5 µg/mL (≈ 34 µM).

Turning to `CCc1cccc2c1ccc1c3occ(C)c3c(=O)oc21` [Compound 2c, 4-Ethyl-17-methyl-11,15-dioxa-cyclopenta[a]phenanthren-12-one], the IC50 worked out at 0.1 µg/mL (≈ 0.359 µM).

Another series relates to A431 (EGFR over-expressing skin cancer). Description: In vitro anticancer assay (SRB), A431. As to conditions: Homo sapiens, A-431, 72 h; concentration that reduces cell growth by 50%, 3 days in culture, SRB; read-out: ED50, A431. In kind it is cell-based, human. The method, then:
as §3, §4
Take `Cc1cccc2c1ccc1c3occc3c(=O)oc21` [Compound 4b, 4-Methyl-11,15-dioxa-cyclopenta[a]phenanthren-12-one]: the IC50 is 8.3 µg/mL (≈ 33.2 µM).

Regarding `CCc1cccc2c1ccc1c3occ(C)c3c(=O)oc21` [Compound 2c, 4-Ethyl-17-methyl-11,15-dioxa-cyclopenta[a]phenanthren-12-one], the IC50 was more than 10 µg/mL.

For the next series, the system named is SW620 (colon cancer). Description: In vitro anticancer assay (SRB), SW620. Particulars: Homo sapiens, SW-620, 72 h; concentration that reduces cell growth by 50%, 3 days in culture, SRB; read-out: ED50, SW620. In kind it is cell-based, human. The method, then: as §3, §4
For the molecule `Cc1cccc2c1ccc1c3occc3c(=O)oc21` [Compound 4b, 4-Methyl-11,15-dioxa-cyclopenta[a]phenanthren-12-one], the IC50 is more than 10 µg/mL.

For the molecule `CCc1cccc2c1ccc1c3occ(C)c3c(=O)oc21` [Compound 2c, 4-Ethyl-17-methyl-11,15-dioxa-cyclopenta[a]phenanthren-12-one], the IC50 was more than 10 µg/mL.

Another series relates to KB (nasopharyngeal carcinoma). Description: In vitro anticancer assay (SRB), KB. In kind it is cell-based, human. Particulars: Homo sapiens, 72 h; concentration that reduces cell growth by 50%, 3 days in culture, SRB; read-out: ED50, KB. The method, then:
as §3, §4
Consider `Cc1cccc2c1ccc1c3occc3c(=O)oc21` [Compound 4b, 4-Methyl-11,15-dioxa-cyclopenta[a]phenanthren-12-one], for which the IC50 is more than 10 µg/mL.

`CCc1cccc2c1ccc1c3occ(C)c3c(=O)oc21` [Compound 2c, 4-Ethyl-17-methyl-11,15-dioxa-cyclopenta[a]phenanthren-12-one]: the IC50 was more than 10 µg/mL.

The subject of the next series is ER+ human breast cancer (MCF-7 and ZR-75-1). Description: Comparison of potency and selectivity against ER+ breast cancer cell lines in vitro. Format: cell-based. As to conditions: against ER+ cell lines. The method, then:
as §3
as §2, with “dye. The mean ED50 is the concentration of agent that reduces cell growth by 50% under the experimental conditions and is the average from at least three independent determinations that were reproducible and statistically significant. […]” for “dye.”
Turning to `CCc1cccc2c1ccc1c3occ(C)c3c(=O)oc21` [Compound 2c, 4-Ethyl-17-methyl-11,15-dioxa-cyclopenta[a]phenanthren-12-one], the “times better activity than compound 2a and tamoxifen” value was determined as 10 times.

Test system in the next series: not given
Assay: not given
Settings: not given
A word on the melting point: it is the temperature, or range, at which the solid turns liquid. `Cc1cccc2c1ccc1c3occc3c(=O)oc21` [Compound 4b, 4-Methyl-11,15-dioxa-cyclopenta[a]phenanthren-12-one] displayed a melting point of 220 to 222 °C.

Consider `CCc1cccc2c1ccc1c3occ(C)c3c(=O)oc21` [Compound 2c, 4-Ethyl-17-methyl-11,15-dioxa-cyclopenta[a]phenanthren-12-one], for which the melting point was 145 to 147 °C.

Take `CCc1cccc2c1ccc1c3occc3c(=O)oc21` [Compound 4c, 4-Ethyl-11,15-dioxa-cyclopenta[a]phenanthren-12-one]: the melting point was in the range of 173 to 174 °C.
